From patent US12290073B2, “Anti-microbial compound and methods of use” (SHENZHEN UNIVERSITY, priority 2019, dated 2025)
Where two headings read alike, the source gives them in different places.

Tests used:
Test in all cases: Anti-microbial rate of finished cotton textiles, FZ/T73023-2006 D.8 shocking method
Format in all cases: cell-based
[1] = tested on: Staphylococcus Aureus (S. aureus, ATCC 6538); conditions: for killing at 1 %: Staphylococcus aureus, ATCC6538, finishing liquid 1.0 wt %, read-out: Anti-microbial rate (%) of cotton textiles finished with compound E (1.0 wt %), S. aureus; for Anti-microbial rate (%) of cotton textiles finished with compound E (1.0 wt %), S. aureus: finishing liquid 1.0 wt %
From the text: (§1) Each of the reaction products (i.e., compound E) according to Examples 1-21 was used to prepare an anti-microbial agent (e.g., a finishing liquid), and the anti-microbial effects were different depending on compound E and conditions of use.
(§2) Remarks: 1) in the data of anti-microbial rate in Table 5: Examples 1-9 used a soaking-rolling-drying process to finish cotton fabric, where the bath ratio (i.e., the ratio of the weight of a liquid containing compound E to the weight of the cotton fabric) was 20:1, the residual liquid ratio was 90%, and the drying process was conducted at 85° C. for 30 minutes; Examples 10-18 were prepared by a soaking-high speed spinning-drying method, where the bath ratio was 20:1, the residual liquid ratio was 90%, and the drying process was conducted at 85° C. for 20 min; Examples 19-21 were prepared by a spraying-spinning-drying process with a bath ratio of 30:1, a residual liquid ratio of 85% after drying, and the drying process was conducted at 105° C. for 5 minutes.
(§3) 2) Table 5 data test method: FZ/T73023-2006 anti-microbial textiles D.8 shocking method. In addition, the inhibition zone method (FZ/T73023-2006 anti-microbial textiles—Appendix E—inhibition zone method) was used to test whether the active compound (E) was released from the finished cotton textiles, the inhibition zone test result of the 21 examples and zwitterions were 0 mm, and thus compound E was not released from the finished cotton textiles. The anti-microbial finishing agent used in the comparative experiment was zwitterion with the molecular structure
(§4) 3) The composition of the finishing liquid in Table 5 was: compound E 1.0 wt %, sodium bicarbonate 1.0 wt %, and the rest of the finishing liquid was water.

[2] = tested on: Escherichia Coli (E. coli, ATCC25922); conditions: for killing at 1 %: Escherichia coli, ATCC25922, finishing liquid 1.0 wt %, read-out: Anti-microbial rate (%) of cotton textiles finished with compound E (1.0 wt %), E. coli; for Anti-microbial rate (%) of cotton textiles finished with compound E (1.0 wt %), E. coli: finishing liquid 1.0 wt %
From the text: as §1, §2, §3, §4

[3] = tested on: Candida Albicans (C. albicans 10231); conditions: finishing liquid 1.0 wt %; for killing at 1 %: Candida albicans, read-out: Anti-microbial rate (%) of cotton textiles finished with compound E (1.0 wt %), C. albicans
From the text: as §1, §2, §3, §4

| SMILES | killing at 1 % ([1]; times of washing 0) | killing at 1 % ([1]; times of washing 10) | killing at 1 % ([1]; times of washing 50) | killing at 1 % ([2]; times of washing 0) | killing at 1 % ([2]; times of washing 10) | killing at 1 % ([2]; times of washing 50) | killing at 1 % ([3]; times of washing 0) | killing at 1 % ([3]; times of washing 10) | killing at 1 % ([3]; times of washing 50) | Anti-microbial rate (%) of cotton textiles finished with compound E (1.0 wt %), S. aureus ([1]; times of washing 0) | Anti-microbial rate (%) of cotton textiles finished with compound E (1.0 wt %), S. aureus ([1]; times of washing 10) | Anti-microbial rate (%) of cotton textiles finished with compound E (1.0 wt %), S. aureus ([1]; times of washing 50) | Anti-microbial rate (%) of cotton textiles finished with compound E (1.0 wt %), E. coli ([2]; times of washing 0) | Anti-microbial rate (%) of cotton textiles finished with compound E (1.0 wt %), E. coli ([2]; times of washing 10) | Anti-microbial rate (%) of cotton textiles finished with compound E (1.0 wt %), E. coli ([2]; times of washing 50) | Anti-microbial rate (%) of cotton textiles finished with compound E (1.0 wt %), C. albicans ([3]; times of washing 0) | Anti-microbial rate (%) of cotton textiles finished with compound E (1.0 wt %), C. albicans ([3]; times of washing 10) | Anti-microbial rate (%) of cotton textiles finished with compound E (1.0 wt %), C. albicans ([3]; times of washing 50) |
| --- | --- | --- | --- | --- | --- | --- | --- | --- | --- | --- | --- | --- | --- | --- | --- | --- | --- | --- |
| C[n+]1ccn(CCCCCCCCCCCCCCCCCCOc2nc(Cl)nc(Cl)n2)c1 [Example 13] | 100% | 99.9% | 99.9% | 100% | 99.9% | 99.5% | 99.9% | 99.9% | 98.9% | – | – | – | – | – | – | – | – | – |
| C[n+]1ccn(CCCNc2nc(Cl)nc(Cl)n2)c1 [Example 14] | 100% | 99.9% | 99.5% | 100% | 99.9% | 99.1% | 99.9% | 99.9% | 99.9% | – | – | – | – | – | – | – | – | – |
| C[n+]1ccc(COc2nc(Cl)nc(Cl)n2)cc1 [Example 15] | 100% | 99.9% | 99.1% | 100% | 99.9% | 98.9% | 99.9% | 99.9% | 92.9% | – | – | – | – | – | – | – | – | – |
| CCCCCCCCCCCC[n+]1cc[n+](CCCCCCCCCCCC)c(CCSc2nc(Cl)nc(Cl)n2)c1 [Example 16] | 100% | 99.9% | 99.9% | 100% | 99.9% | 99.8% | 99.9% | 99.9% | 93.6% | – | – | – | – | – | – | – | – | – |
| CCCCCCCCCCCC[N+](C)(C)CCN(CCOc1nc(Cl)nc(Cl)n1)CC[N+](C)(C)CCCCCCCCCCCC [Example 17] | 100% | 99.9% | 99.9% | 100% | 99.9% | 99.5% | 99.9% | 99.9% | 99.3% | – | – | – | – | – | – | – | – | – |
| C[N+](C)(C)CCCCCCCCCCCCCCCCCCN(CCCCCCCCCCCCCCCCCC[N+](C)(C)C)CCOc1nc(Cl)nc(Cl)n1 [Example 18] | 100% | 99.9% | 98.9% | 100% | 99.9% | 97.9% | 99.9% | 99.9% | 96.9% | – | – | – | – | – | – | – | – | – |
| Clc1nc(Cl)nc(OCCC[P+](c2ccccc2)(c2ccccc2)c2ccccc2)n1 [Example 20] | 100% | 99.9% | 97.9% | 100% | 99.9% | 95.9% | 99.9% | 99.9% | 92.9% | – | – | – | – | – | – | – | – | – |
| Clc1nc(Cl)nc(OCCC[P+](c2ccccc2)(c2ccccc2)c2ccccc2)n1.[Br-] [Example 21] | – | – | – | – | – | – | – | – | – | 99.99% | 99.9% | 98.9% | 99.99% | 99.9% | 96.9% | 99.9% | 99.9% | 93.9% |
